How the values were obtained:
[1] = system: Botryotinia fuckeliana (Botrvtis cinerea); experiment: Botryotinia fuckeliana (Botrvtis cinerea)/Liquid Culture (Gray Mould); type: cell-based; conditions: Botrytis cinerea; 200 ppm in the formulation; liquid culture, growth inhibition photometrically 3-4 days after application; compared to untreated control; read-out: disease control
Method: (§1) Botryotinia fuckeliana (Botrvtis cinerea)/Liquid Culture (Gray Mould) Conidia of the fungus from cryogenic storage are directly mixed into nutrient broth (Vogels broth). After placing a (DMSO) solution of test compound into a microtiter plate (96-well format), the nutrient broth containing the fungal spores is added. The test plates are incubated at 24° C. and the inhibition of growth is determined photometrically 3-4 days after application.

[2] = system: Phaeosphaeria nodorum (Septoria nodorum); experiment: Phaeosphaeria nodorum (Septoria nodorum)/Wheat/Leaf Disc Preventative (Glume Blotch); type: in vivo; conditions: Parastagonospora nodorum, foliar; 200 ppm in the formulation; wheat leaf segments cv. Kanzler, inoculated 2 days after application, assessed 5-7 days after application; compared to untreated; read-out: disease control
Method: Phaeosphaeria nodorum (Septoria nodorum)/Wheat/Leaf Disc Preventative (Glume Blotch) Wheat leaf segments cv. Kanzler are placed on agar in a multiwell plate (24-well format) and sprayed with the formulated test compound diluted in water. The leaf disks are inoculated with a spore suspension of the fungus 2 days after application. The inoculated test leaf disks are incubated at 20° C. and 75% rh under a light regime of 12 h light/12 h darkness in a climate cabinet and the activity of a compound is assessed as percent disease control compared to untreated when an appropriate level of disease damage appears in untreated check leaf disks (5-7 days after application).

[3] = system: Puccinia recondita f. sp. tritici; experiment: Puccinia recondita f. sp. tritici/Wheat/Leaf Disc Preventative (Brown Rust); type: in vivo; conditions: foliar, 200 ppm in the formulation, wheat leaf segments cv. Kanzler, inoculated 1 day after application, assessed 7-9 days after application, compared to untreated, read-out: disease control
Method: Puccinia recondita f. sp. tritici/Wheat/Leaf Disc Preventative (Brown Rust) Wheat leaf segments cv. Kanzler are placed on agar in multiwell plates (24-well format) and sprayed with the formulated test compound diluted in water. The leaf disks are inoculated with a spore suspension of the fungus 1 day after application. The inoculated leaf segments are incubated at 19° C. and 75% rh under a light regime of 12 h light/12 h darkness in a climate cabinet and the activity of a compound is assessed as percent disease control compared to untreated when an appropriate level of disease damage appears in untreated check leaf segments (7-9 days after application).

[4] = system: Mycosphaerella arachidis (Cercospora arachidicola); experiment: Mycosphaerella arachidis (Cercospora arachidicola)/Liquid Culture (Early Leaf Spot); type: cell-based; conditions: 200 ppm in the formulation, liquid culture, growth inhibition photometrically 4-5 days after application, compared to untreated control, read-out: disease control
Method: as §1, with “Mycosphaerella arachidis (Cercospora arachidicola)/Liquid” for “Botryotinia fuckeliana (Botrvtis cinerea)/Liquid”, “(Early Leaf Spot)” for “(Gray Mould)”, “(PDB potato dextrose” for “(Vogels”, “4-5” for “3-4”

[5] = system: Monographella nivalis (Microdochium nivale); experiment: Monographella nivalis (Microdochium nivale)/Liquid Culture (Foot Rot Cereals); type: cell-based; conditions: 200 ppm in the formulation, liquid culture, growth inhibition photometrically 4-5 days after application, compared to untreated control, read-out: disease control
Method: as §1, with “Monographella nivalis (Microdochium nivale)/Liquid” for “Botryotinia fuckeliana (Botrvtis cinerea)/Liquid”, “(Foot Rot Cereals)” for “(Gray Mould)”, “(PDB potato dextrose” for “(Vogels”, “4-5” for “3-4”

[6] = system: Mycosphaerella graminicola (Septoria tritici); experiment: Mycosphaerella graminicola (Septoria tritici)/Liquid Culture (Septoria Blotch); type: cell-based; conditions: Zymoseptoria tritici; 200 ppm in the formulation; liquid culture, growth inhibition photometrically 4 to 5 days after application; compared to untreated control; read-out: disease control
Method: as §1, with “Mycosphaerella graminicola (Septoria tritici)/Liquid” for “Botryotinia fuckeliana (Botrvtis cinerea)/Liquid”, “(Septoria Blotch)” for “(Gray Mould)”, “(PDB potato dextrose” for “(Vogels”, “4 to 5” for “3-4”

[7] = system: Glomerella lagenarium (Colletotrichum lagenarium); experiment: Glomerella lagenarium (Colletotrichum lagenarium)/Liquid Culture (Anthracnose); type: cell-based; conditions: Colletotrichum orbiculare; 200 ppm in the formulation; liquid culture, growth inhibition photometrically 3 to 4 days after application; compared to untreated control; read-out: disease control
Method: as §1, with “Glomerella lagenarium (Colletotrichum lagenarium)/Liquid” for “Botryotinia fuckeliana (Botrvtis cinerea)/Liquid”, “(Anthracnose)” for “(Gray Mould)”, “(PDB potato dextrose” for “(Vogels”, “measured” for “determined”, “3 to 4” for “3-4”

| Structure (SMILES) | inhibition of growth at 200 ppm [1] [%] | pest or weed control at 200 ppm [2] [%] | pest or weed control at 200 ppm [3] [%] | inhibition of growth at 200 ppm [4] [%] | inhibition of growth at 200 ppm [5] [%] | inhibition of growth at 200 ppm [6] [%] | inhibition of growth at 200 ppm [7] [%] | melting point [°C] |
| --- | --- | --- | --- | --- | --- | --- | --- | --- |
| COc1ccnc(C(=O)N[C@@H](C)C(=O)O[C@@H](C)c2ccc(-c3ccc(Br)cc3)cc2)c1O [I.v.001, [(1S)-1-[4-(4-bromophenyl)phenyl]ethyl] (2S)-2-[(3-hydroxy-4-methoxy-pyridine-2-carbonyl)amino] propanoate] | ≥ 80 | ≥ 80 | ≥ 80 | ≥ 80 | ≥ 80 | ≥ 80 | ≥ 80 | – |
| COc1ccnc(C(=O)N[C@@H](C)C(=O)O[C@@H](C)c2ccc(-c3ccc(Cl)cn3)cc2)c1O [I.aa.001, [(1S)-1-[4-(5-chloro-2-pyridyl)phenyl]ethyl] (2S)-2-[(3-hydroxy-4-methoxy-pyridine-2-carbonyl)amino] propanoate] | – | – | ≥ 80 | ≥ 80 | ≥ 80 | ≥ 80 | ≥ 80 | 144 to 145 |
| COc1ccnc(C(=O)N[C@@H](C)C(=O)O[C@@H](C)c2ccc(-c3ccccc3C)cc2)c1O [I.h.001, [(1S)-1-[4-(o-tolyl)phenyl]ethyl] (2S)-2-[(3-hydroxy-4-methoxy-pyridine-2-carbonyl)amino] propanoate] | ≥ 80 | ≥ 80 | ≥ 80 | ≥ 80 | ≥ 80 | ≥ 80 | ≥ 80 | – |
| COc1ccnc(C(=O)N[C@@H](C)C(=O)O[C@@H](C)c2ccc(-c3cccc(C)c3C)cc2)c1O [I.m.001, [(1S)-1-[4-(2,3-dimethylphenyl)phenyl]ethyl] (2S)-2-[(3-hydroxy-4-methoxy-pyridine-2-carbonyl)amino] propanoate] | ≥ 80 | ≥ 80 | ≥ 80 | ≥ 80 | ≥ 80 | ≥ 80 | ≥ 80 | – |

— patent US11629129B2, “Microbiocidal picolinamide derivatives” (SYNGENTA PARTICIPATIONS AG, priority 2018, dated 2023)
